This note sets out measurements from paper PMC12073402, “A Selective MAP3K1 Inhibitor Facilitates Discovery of NPM1 as a Member of the Network” (Molecules, 2025).

The subject of experiment [1] is HCT116 MAP3K1 WT cells. Briefly: PrestoBlue growth inhibition assay. Format: cell-based. The note with it: Homo sapiens, HCT-116, 72 h. The source says:
(§1) To investigate the target dependency of 51-106 activity, MAP3K1 was genetically knocked out (KO) in HCT116 cells using CRISPR-Cas9 technology (Gene Editing and Screening Core Facility, Memorial Sloan Kettering Cancer Center). The HCT116 cell line was chosen because it is predominantly diploid, allowing for a more predictable outcome when utilizing CRISPR technology compared with cell lines with aneuploidy. […] Western blot analysis confirmed the absence of MAP3K1 protein expression in KO cells compared to non-targeting control (NTC) MAP3K1 wild-type (WT) cells (Figure 3C). The MAP3K1 primary antibody used binds to residues 50 and 100 of the N-terminus of MAP3K1. HCT116 MAP3K1 WT and MAP3K1 KO cells were subjected to PrestoBlue growth inhibition assay with 51-106 treatment. […] Further optimization of 51-106 and/or the use of emerging methods such as DNA-encoded library based screens followed by machine learning (DEL-ML) along with a comprehensive suite of biophysical and biochemical screens should be employed to develop a MAP3K1 chemical probe.
(§2) A suspension of in 90 μL media was plated per well in clear, flat-bottomed, sterile, 96-well tissue culture plates (Cat# 12-565-438; Fisher Scientific, Waltham, MA, USA). The cells were allowed to adhere overnight in a humidified 5% CO2 incubator at 37 °C. Drug working solutions were prepared from 10 mM DMSO (Cat# BP231; Fisher Scientific) stocks. Drugs were added in 6 dilutions in triplicates. Ten μL of the working solution was added to each well in the plate to yield a final concentration of 20—0.63 μM drug in 1% DMSO. Blank DMSO controls were also included. […] Fluorescence (Ex 560, Em 590) was measured on a plate reader (Spectramax M5e; Molecular Devices) to determine T0. […] Fluorescence was measured on a plate reader. Wells with 1% DMSO were used to determine T100. % Growth was calculated as [(Fluorescence read of a well − T0)/(T100 − T0)] ∗ 100. The data were plotted using Prism V 9.1.0, and the IC50 values were determined using a four-parameter Logistic Curve Fitting function.

The subject of experiment [2] is HCT116 MAP3K1 KO cells. Kind of experiment: PrestoBlue growth inhibition assay. Format: cell-based.
Excerpt: as §1, §2

In experiment [3] the target is T1, TAO2 (Homo sapiens, UniProt Q9UL54).
T1 construct: endogenous in cells; host or cells: PANC-1 cell lysate
T1 sequence (Q9UL54 whole entry): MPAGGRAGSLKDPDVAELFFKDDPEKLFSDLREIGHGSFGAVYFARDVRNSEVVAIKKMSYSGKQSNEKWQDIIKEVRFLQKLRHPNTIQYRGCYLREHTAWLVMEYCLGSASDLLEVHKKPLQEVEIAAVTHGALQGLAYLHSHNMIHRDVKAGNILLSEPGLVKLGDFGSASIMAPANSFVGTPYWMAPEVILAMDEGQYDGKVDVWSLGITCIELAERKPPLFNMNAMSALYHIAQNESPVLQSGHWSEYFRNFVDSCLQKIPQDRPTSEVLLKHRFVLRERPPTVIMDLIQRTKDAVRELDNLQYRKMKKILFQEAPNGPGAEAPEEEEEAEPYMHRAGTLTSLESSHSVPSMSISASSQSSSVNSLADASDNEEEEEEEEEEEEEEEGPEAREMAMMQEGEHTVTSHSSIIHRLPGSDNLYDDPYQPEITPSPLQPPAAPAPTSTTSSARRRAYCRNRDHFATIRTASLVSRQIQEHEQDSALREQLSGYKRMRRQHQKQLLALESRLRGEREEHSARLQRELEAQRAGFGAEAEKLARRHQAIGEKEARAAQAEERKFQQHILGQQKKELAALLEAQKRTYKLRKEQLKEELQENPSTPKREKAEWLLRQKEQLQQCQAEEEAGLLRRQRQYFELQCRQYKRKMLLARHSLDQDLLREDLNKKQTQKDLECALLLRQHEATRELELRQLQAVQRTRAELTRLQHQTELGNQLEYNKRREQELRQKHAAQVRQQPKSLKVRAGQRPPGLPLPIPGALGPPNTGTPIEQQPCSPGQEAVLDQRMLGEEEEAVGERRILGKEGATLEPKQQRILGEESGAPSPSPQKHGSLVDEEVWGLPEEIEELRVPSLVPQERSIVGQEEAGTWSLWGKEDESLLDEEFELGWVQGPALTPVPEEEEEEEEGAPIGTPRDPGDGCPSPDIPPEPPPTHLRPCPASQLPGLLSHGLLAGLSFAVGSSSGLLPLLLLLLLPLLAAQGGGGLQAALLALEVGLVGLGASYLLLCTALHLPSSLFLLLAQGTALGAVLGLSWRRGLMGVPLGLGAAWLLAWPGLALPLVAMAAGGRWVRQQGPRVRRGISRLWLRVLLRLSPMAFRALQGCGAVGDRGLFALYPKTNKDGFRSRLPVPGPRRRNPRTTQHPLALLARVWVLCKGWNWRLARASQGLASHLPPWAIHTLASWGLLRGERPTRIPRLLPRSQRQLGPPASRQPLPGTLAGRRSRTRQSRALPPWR
Kind of experiment: KiNativ kinome profiling in PANC-1 lysate. Format: binding. To be noted: Lys2. The method in brief:
(§3)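 PANC-1 lysates were incubated with 5 μM inhibitor or DMSO, then labeled with a desthiobiotin-ATP acyl-phosphate probe that biotinylates conserved kinase lysines. Tryptic peptides were streptavidin-enriched and quantified by LC-MS/MS, reported as % change in MS signal from duplicate treated and duplicate control samples.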

The target of experiment [4] is T2, TAK1 (Homo sapiens, UniProt O43318).
T2 construct: endogenous in cells; host or cells: PANC-1 cell lysate
T2 sequence (O43318 whole entry): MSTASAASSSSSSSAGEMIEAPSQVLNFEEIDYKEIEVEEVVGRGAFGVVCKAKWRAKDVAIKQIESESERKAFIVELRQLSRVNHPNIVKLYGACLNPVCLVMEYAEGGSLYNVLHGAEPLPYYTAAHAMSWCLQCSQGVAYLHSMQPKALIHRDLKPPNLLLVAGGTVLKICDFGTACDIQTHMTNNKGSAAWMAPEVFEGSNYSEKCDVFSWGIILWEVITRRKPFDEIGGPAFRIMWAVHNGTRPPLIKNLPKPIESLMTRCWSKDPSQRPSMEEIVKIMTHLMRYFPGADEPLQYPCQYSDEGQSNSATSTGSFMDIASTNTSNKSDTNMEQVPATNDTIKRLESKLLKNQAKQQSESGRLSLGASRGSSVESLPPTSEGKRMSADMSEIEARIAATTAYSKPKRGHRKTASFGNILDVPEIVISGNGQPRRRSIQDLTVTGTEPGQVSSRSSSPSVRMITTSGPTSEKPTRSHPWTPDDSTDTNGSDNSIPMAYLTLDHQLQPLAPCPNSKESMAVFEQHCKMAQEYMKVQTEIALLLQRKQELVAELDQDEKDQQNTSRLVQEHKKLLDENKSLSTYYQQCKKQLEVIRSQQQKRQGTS
Kind of experiment: KiNativ kinome profiling in PANC-1 lysate. The note with it: Lys2. Format: binding. The essentials:
as §3

In experiment [5] the test system is NEK6, NEK7. Kind of experiment: KiNativ kinome profiling in PANC-1 lysate. Format: binding. To be noted: 5 µM; Lys2; DIKPANVFITATGVVK
The method in brief:
as §3

Experiment [6] deals with p38d, p38g. Briefly: KiNativ kinome profiling in PANC-1 lysate. Format: binding. To be noted: 5 µM; Lys2; DLKPGNLAVNEDCELK
The method in brief:
as §3

The target in experiment [7] is T3, CaMKK2 (Homo sapiens, UniProt Q96RR4).
T3 construct: endogenous in cells; host or cells: PANC-1 cell lysate
T3 sequence (Q96RR4 whole entry): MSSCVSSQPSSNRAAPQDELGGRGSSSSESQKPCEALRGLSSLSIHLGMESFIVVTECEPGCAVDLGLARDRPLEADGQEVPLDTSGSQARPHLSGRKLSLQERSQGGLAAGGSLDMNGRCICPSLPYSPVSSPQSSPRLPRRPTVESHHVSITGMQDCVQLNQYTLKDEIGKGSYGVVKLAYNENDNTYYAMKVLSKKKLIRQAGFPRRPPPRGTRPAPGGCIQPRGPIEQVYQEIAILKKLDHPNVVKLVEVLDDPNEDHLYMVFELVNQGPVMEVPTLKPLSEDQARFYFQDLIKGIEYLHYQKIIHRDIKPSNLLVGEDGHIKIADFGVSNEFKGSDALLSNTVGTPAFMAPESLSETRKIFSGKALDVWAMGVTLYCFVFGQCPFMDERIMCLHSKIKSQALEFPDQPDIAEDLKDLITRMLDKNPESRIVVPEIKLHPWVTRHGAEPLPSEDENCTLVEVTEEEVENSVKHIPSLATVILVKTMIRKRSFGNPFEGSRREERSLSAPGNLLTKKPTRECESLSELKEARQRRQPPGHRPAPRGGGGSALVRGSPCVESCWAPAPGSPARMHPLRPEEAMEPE
Briefly: KiNativ kinome profiling in PANC-1 lysate. Format: binding. The method in brief: as §3

The target of experiment [8] is T4, CDK11 (Homo sapiens, UniProt Q9BWU1).
T4 construct: endogenous in cells; host or cells: PANC-1 cell lysate
T4 sequence (Q9BWU1 whole entry): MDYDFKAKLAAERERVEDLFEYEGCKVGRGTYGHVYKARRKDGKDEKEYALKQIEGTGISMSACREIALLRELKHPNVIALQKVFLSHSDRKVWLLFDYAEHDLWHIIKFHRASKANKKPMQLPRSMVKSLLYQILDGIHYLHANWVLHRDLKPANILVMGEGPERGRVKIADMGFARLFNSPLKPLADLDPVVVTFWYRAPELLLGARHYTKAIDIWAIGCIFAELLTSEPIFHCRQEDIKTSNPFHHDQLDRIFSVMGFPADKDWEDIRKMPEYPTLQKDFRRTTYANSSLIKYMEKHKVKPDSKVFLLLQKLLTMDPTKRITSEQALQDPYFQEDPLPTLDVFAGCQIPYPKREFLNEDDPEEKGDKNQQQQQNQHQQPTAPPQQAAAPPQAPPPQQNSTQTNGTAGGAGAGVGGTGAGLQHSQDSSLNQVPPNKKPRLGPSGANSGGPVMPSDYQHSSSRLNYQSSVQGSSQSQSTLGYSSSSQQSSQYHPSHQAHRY
Kind of experiment: KiNativ kinome profiling in PANC-1 lysate. The note with it: Lys1. Format: binding. The essentials:
as §3

Experiment [9] deals with T5, BARK1 (Homo sapiens, UniProt P25098).
T5 construct: endogenous in cells; host or cells: PANC-1 cell lysate
T5 sequence (P25098 whole entry): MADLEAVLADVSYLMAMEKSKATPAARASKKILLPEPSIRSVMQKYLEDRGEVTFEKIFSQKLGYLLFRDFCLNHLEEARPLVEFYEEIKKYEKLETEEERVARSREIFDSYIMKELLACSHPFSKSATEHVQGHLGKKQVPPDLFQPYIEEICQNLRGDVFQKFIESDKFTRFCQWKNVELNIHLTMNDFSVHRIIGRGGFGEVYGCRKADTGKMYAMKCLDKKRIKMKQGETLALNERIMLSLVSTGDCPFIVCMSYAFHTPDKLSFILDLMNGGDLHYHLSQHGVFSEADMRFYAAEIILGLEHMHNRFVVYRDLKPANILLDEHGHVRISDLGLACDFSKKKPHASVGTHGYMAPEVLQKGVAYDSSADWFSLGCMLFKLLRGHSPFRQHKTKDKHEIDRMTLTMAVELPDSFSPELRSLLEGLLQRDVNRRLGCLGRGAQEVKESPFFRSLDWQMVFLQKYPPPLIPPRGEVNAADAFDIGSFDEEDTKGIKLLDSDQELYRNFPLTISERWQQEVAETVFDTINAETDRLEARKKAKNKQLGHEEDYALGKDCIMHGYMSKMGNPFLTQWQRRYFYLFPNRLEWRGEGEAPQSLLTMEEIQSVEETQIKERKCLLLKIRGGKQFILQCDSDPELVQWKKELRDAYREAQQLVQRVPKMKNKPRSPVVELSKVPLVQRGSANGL
Briefly: KiNativ kinome profiling in PANC-1 lysate. Format: binding. The note with it: Lys2. The method in brief: as §3

Experiment [10] has as its target T6, JAK3 domain2 (Homo sapiens, UniProt P52333).
T6 construct: we opted to conduct a kinome screen (KiNativ) in PANC-1 cell lysates; endogenous in cells; host or cells: PANC-1 cell lysate
Briefly: KiNativ kinome profiling in PANC-1 lysate. Format: binding. To be noted: Lys1. The essentials: as §3

Molecules are shown by their SMILES.

T6 sequence (P52333 whole entry, the tested form may be a part): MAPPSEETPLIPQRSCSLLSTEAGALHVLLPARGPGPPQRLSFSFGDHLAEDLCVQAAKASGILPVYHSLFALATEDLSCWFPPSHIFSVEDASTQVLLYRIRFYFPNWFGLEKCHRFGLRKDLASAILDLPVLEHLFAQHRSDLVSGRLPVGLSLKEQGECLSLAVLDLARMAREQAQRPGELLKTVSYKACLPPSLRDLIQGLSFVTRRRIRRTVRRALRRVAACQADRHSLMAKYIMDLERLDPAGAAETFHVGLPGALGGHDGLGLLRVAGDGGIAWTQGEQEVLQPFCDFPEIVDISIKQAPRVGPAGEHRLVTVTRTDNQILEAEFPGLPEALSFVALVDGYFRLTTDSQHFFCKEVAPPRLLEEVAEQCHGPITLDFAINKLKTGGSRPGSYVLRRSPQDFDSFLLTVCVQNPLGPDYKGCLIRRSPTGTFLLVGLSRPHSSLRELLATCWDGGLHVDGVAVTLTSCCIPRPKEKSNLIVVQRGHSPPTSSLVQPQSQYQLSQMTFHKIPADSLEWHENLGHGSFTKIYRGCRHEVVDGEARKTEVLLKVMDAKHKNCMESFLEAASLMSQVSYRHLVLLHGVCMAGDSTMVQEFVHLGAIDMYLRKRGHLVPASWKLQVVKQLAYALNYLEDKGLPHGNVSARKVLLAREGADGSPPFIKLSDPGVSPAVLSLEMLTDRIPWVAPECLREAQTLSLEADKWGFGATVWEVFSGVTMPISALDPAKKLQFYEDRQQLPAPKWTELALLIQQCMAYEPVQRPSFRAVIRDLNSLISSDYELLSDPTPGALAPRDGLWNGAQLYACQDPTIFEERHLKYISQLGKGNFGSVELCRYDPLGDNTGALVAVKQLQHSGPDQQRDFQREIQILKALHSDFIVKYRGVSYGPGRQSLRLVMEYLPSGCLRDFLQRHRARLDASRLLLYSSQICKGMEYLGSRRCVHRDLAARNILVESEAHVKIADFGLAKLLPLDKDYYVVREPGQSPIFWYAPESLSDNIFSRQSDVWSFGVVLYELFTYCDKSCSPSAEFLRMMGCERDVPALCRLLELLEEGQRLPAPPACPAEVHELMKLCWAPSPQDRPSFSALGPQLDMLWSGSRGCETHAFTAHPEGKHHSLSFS

The IC50 is the concentration at which inhibition is half-maximal. High values mean weaker potency, low ones greater potency. The term inhibition denotes the relative decrease from the control value, in per cent. A higher inhibition goes with strong suppression. The % Inhibition is the relative decrease from the control value, in per cent. As for `Cn1cc(-c2cnc3ccc(NC(=O)Nc4ccc(F)c(C(F)(F)F)c4)cc3n2)cn1` [51-106, 1-(4-Fluoro-3-(trifluoromethyl)phenyl)-3-(3-(1-methyl-1H-pyrazol-4-yl)quinoxalin-6-yl)urea], the IC50 in [1] is approximately 1.8 µM; in experiment [2] (Homo sapiens, HCT-116, 72 h, HCT116 MAP3K1 KO, 72 h, PrestoBlue), approximately 8.9 µM. For the same compound, in experiment [2] (HCT116 MAP3K1 KO versus WT), the “increase in IC50 in MAP3K1 KO cells” value stood at 5 fold. Besides, the inhibition at 5 µM in experiment [3] is 5.5%; in experiment [4], not above 0%; in experiment [7] (Lys1, LAYNENDNTYYAMKVLSK) it was 2.6%; in [7] (Lys2, DIKPSNLLVGEDGHIK), not above 0%; in experiment [8] it was 4%; in experiment [9] it was 2.2%. In experiment [10], this compound showed an inhibition at 5 µM of 25.2%. The “% Inhibition” value is 24.8% in [5] and “NB (NB = No Binding (≤ 0))” in experiment [6].
